Experimental data published in patent US4282245A, “Dibenzothiepin derivatives and a process for producing the same” (Nippon Chemiphar Co., Ltd., priority 1978, dated 1981).
Read-outs that look alike come from different tables or passages of the source.

Tested on: edema in the hind paws (carrageenan)
Experiment: carrageenan-induced hind paw edema in rats, oral administration (antiinflammatory effect)
Type: in vivo, Male Wistar rats
Conditions: for inhibition in vivo at 2 mg/kg: Rattus norvegicus, read-out: Inhibition (%) (after 3 hours); for Rate to Indomethacin: relative to Indomethacin = 1.00
Protocol: Male Wistar rats each weighing about 100 g, one group consisting of 5 to 7 animals, were orally given the compounds of the present invention and Indomethacin as a contrast, and edema was then induced in the hind paws by subcutaneous injection of 0.1 ml of 1% carrageenan one hour after the administration of the test compounds. Thereafter, the volumes of the hind paws with a predetermined lapse of time were measured by a volume differential meter.

[1] = oral, 2 mg/kg, after 3 hours, carrageenan hind paw edema, male Wistar rats
[2] = oral, 2 mg/kg, carrageenan hind paw edema, male Wistar rats

Row | SMILES | inhibition in vivo at 2 mg/kg [1] | Rate to Indomethacin [2] | inhibition in vivo at 2 mg/kg (po, 3 h)
1 | COc1ccc2c(c1)CC(=O)c1cc(C(C)C(N)=O)ccc1S2 (stereo not drawn) [Compound 1, 2(10,11-dihydro-8-methoxy-11-oxodibenzo[b,f]thiepin2-yl)-propionamide] | 67.8% | 5.2 | 
2 | COc1ccc2c(c1)CC(=O)c1cc(C(C)C(=O)O)ccc1S2 (stereo not drawn) [Compound 2, 2(10,11-dihydro-8-methoxy-11-oxodibenzo[b,f]thiepin2-yl)-propionic acid] | 48.2% | 1.9 | 
3 | CCOc1ccc2c(c1)CC(=O)c1cc(C(C)C(N)=O)ccc1S2 (stereo not drawn) [Compound 3, 2(10,11-dihydro-8-ethoxy-11-oxodibenzo[b,f]thiepin2-yl)-propionamide] | 40.4% | 1.2 | 
4 | CC(C(N)=O)c1ccc2c(c1)C(=O)Cc1cc(Cl)ccc1S2 (stereo not drawn) [Compound 4, 2(8-chloro-10,11-dihydro-11-oxodibenzo[b,f]thiepin2-yl)-propionamide] | 46.8% | 1.4 | 
5 | CC(C(=O)O)c1ccc2c(c1)C(=O)Cc1cc(Cl)ccc1S2 (stereo not drawn) [Compound 5, 2(8-chloro-10,11-dihydro-11-oxodibenzo[b,f]thiepin2-yl)-propionic acid] | 61.6% | 2.7 | 
6 | CC(C(N)=O)c1ccc2c(c1)C(=O)Cc1cc(F)ccc1S2 (stereo not drawn) [Compound 6, 2(10,11-dihydro-8-fluoro-11-oxodibenzo[b,f]thiepin2-yl)-propionamide] | 58.4% | 2.29 | 
7 | CC(C(=O)O)c1ccc2c(c1)C(=O)Cc1cc(F)ccc1S2 (stereo not drawn) [Compound 7, 2(10,11-dihydro-8-fluoro-11-oxodibenzo[b,f]thiepin2-yl)-propionic acid] | 66.8% | 4.56 | 
8 | CC(C(N)=O)c1ccc2c(c1)C(=O)Cc1ccc(F)cc1S2 (stereo not drawn) [Compound 8, 2(10,11-dihydro-7-fluoro-11-oxodibenzo[b,f]thiepin2-yl)-propionamide] | 41.9% | 1.45 | 
9 | COc1ccc2c(c1)c(CC(=O)O)c(C)n2C(=O)c1ccc(Cl)cc1 [Indomethacin, reference compound] |  | 1.00 | 34.5%
